Where two headings read alike, the source gives them in different places.
Experiments:
CEM-SS cells [1] = test: BCECF assay, direct cytotoxicity upon uninfected CEM-SS target cells; type: cell-based, human; conditions: quadruplicate tests, cytotoxicity to CEM-SS, read-out: IC50 μM (± SD) BCECF
Text: (§1) Briefly, the procedure was as follows.

HIV-1 [2] = conditions: for EC50: read-out: EC50 μM (±S.D.) SFU, quadruplicate tests, supernatant syncytium-forming units
HIV-1 [3] = test: microbe, parasite or virus in culture; conditions: for antiviral potency relative to calanolide A: overall of XTT and BCECF assays; for anti-HIV activity in the primary screening assay / inhibition of the cytopathic effects of HIV-1 upon CEM-SS cells: result in words; for inhibition of the cytopathic effects of HIV-1 upon CEM-SS cells: battery of interrelated assays, 6 days
Text: Pure compounds were initially evaluated for antiviral activity using an XTT-tetrazolium anti-HIV primary screening assay described previously (Boyd, M. R., in AIDS Etiology, Diagnosis, Treatment and Prevention (DeVita V. T., Jr., Hellman S., Rosenberg S. A., eds.), pp 305-319 (Philadelphia: Lippincott, 1988); Gustafson, K. R., et al., J. Med. Chem., 35, 1978-1986 (1992); Weislow, O. S., et al., J. Natl. Cancer Inst., 81, 577-586 (1989); Gulakowski, R. J., et al., J. Virol. Methods, 33, 87-100 (1991)). The CEM-SS human lymphocytic target cell line used in all assays was maintained in RPMI 1640 medium (Gibco, Grand Island, N.Y.), without phenol red, and was supplemented with 5% fetal bovine serum, 2 mM L-glutamine and 50 μg/ml gentamicin (complete medium). Exponentially-growing cells were pelleted and resuspended at a concentration of 2.0×10^5 cells/ml in complete medium. The Haitian variant of HIV, HTLV-IIIRF (3.54×10^6 SFU/ml), was used throughout. Frozen virus stock solutions were thawed immediately before use and resuspended in complete medium to yield […]. The appropriate amounts of the pure compounds for anti-HIV evaluations were dissolved in 100% dimethylsulfoxide (DMSO), then diluted in complete medium to the desired initial concentration (and with the final DMSO content not exceeding 1%). All serial drug dilutions, reagent additions, and plate-to-plate transfers were carried out with an automated Biomek 1000 Workstation (Beckman Instruments, Palo Alto, Calif.).
Briefly, the procedure was as follows. Uninfected CEM-SS cells were plated at a density of 1×10^4 cells in 50 μl of complete medium. Diluted HIV-1 virus was then added to appropriate wells in a volume of 50 μl to yield a multiplicity of infection of 0.6. Appropriate cell, virus and drug controls were incorporated in each experiment; the final volume in each microtiter well was 200 μl. Quadruplicate wells were used for virus-infected cells, and duplicate wells were used for uninfected cells. Plates were incubated at 37° C. in an atmosphere containing 5% CO2 for 6 days. Subsequently, aliquots of cell-free supernatant were removed from each well using the Biomek, and analyzed for reverse transcriptase activity, p24 antigen production and synthesis of infectious virions as described (Gulakowski, R. J., et al., J. Virol. Methods, 33, 87-100 (1991)). Cellular growth or viability then was estimated on the remaining contents of each well using the XTT (Weislow, O. S., et al., J. Natl. Cancer Inst., 81, 577-586 (1989)), BCECF (Rink, T. L., et al., J. Cell. Biol., 95, 189-196 (1982)) and DAPI (McCaffrey, T. A., et al., In Vitro Cell Develop. Biol., 24, 247-252 (1988)) assays as described (Gulakowski, R. J., et al., J. Virol. Methods, 33, 87-100 (1991)).

HIV-1 [4] = conditions: for EC50: read-out: EC50 μM (±S.D.) p24, quadruplicate tests, supernatant viral core protein
HIV-1 [5] = conditions: for EC50: read-out: EC50 μM (±S.D.) RT, quadruplicate tests, supernatant reverse transcriptase
CEM-SS cells [6] = test: XTT assay, direct cytotoxicity upon uninfected CEM-SS target cells; type: cell-based, human
Text: as §1

HIV-1 [7] = test: microbe, parasite or virus in culture; conditions: Human immunodeficiency virus 1, CEM-SS, read-out: EC50 μM (±S.D.) SFU
HIV-1 [8] = test: microbe, parasite or virus in culture; conditions: Human immunodeficiency virus 1, CEM-SS, read-out: EC50 μM (±S.D.) RT
[9] = XTT assay, direct cytotoxicity upon uninfected CEM-SS target cells; type: cell-based, human; conditions: human, uninfected CEM-SS cells; FIGS. 4A-D, CEM-SS cells, 6 days
Text: as §1

HIV-1 [10] = test: microbe, parasite or virus in culture; conditions: Human immunodeficiency virus 1, CEM-SS, read-out: EC50 μM (±S.D.) p24
HIV = conditions: in most patients; cited from earlier work
[11] = read-out: EC50 μM (± SD) BCECF, quadruplicate tests, HIV-1 strain RF, CEM-SS
[12] = read-out: EC50 μM (± SD) XXT, quadruplicate tests, HIV-1 strain RF, CEM-SS
[13] = quadruplicate tests, cytotoxicity to CEM-SS, read-out: IC50 μM (± SD) XXT
[14] = HIV-1-infected CEM-SS, FIG. 4D, result in words
[15] = primary screening assay, HIV-1 in CEM-SS cells
[16] = primary screening assay, cytotoxicity to CEM-SS cells, read-out: IC50

Row | Molecule | IC50 (CEM-SS cells [1]) [µM] | EC50 (HIV-1 [2]) [µM] | antiviral potency relative to calanolide A (HIV-1 [3]; HIV-1 strain RF, CEM-SS) | EC50 (HIV-1 [3]; [11]) [µM] | EC50 (HIV-1 [3]; [12]) [µM] | EC50 (HIV-1 [4]) [µM] | EC50 (HIV-1 [5]) [µM] | IC50 (CEM-SS cells [6]; [13]) [µM] | anti-HIV activity in the primary screening assay (HIV-1 [3]; HIV-1 in CEM-SS cells) | further results
1 | CCCc1cc(=O)oc2c3c(c4c(c12)OC(C)(C)CC4)O[C@H](C)[C@@H](C)[C@@H]3O [DH-calanolide A, 7,8-dihydrocalanolide A] | 18.7 | 0.17 | about ⅔ | 0.19 | 0.23 | 0.12 | 0.13 | 12.5 | – | –
2 | CCCc1cc(=O)oc2c3c(c4c(c12)OC(C)(C)C=C4)O[C@H](C)[C@@H](C)[C@@H]3O [calanolide A] | – | – | – | – | – | – | – | – | complete protection | IC50 (CEM-SS cells [1]; Homo sapiens): 14.3 µM; production of SFU (HIV-1 [2]; [14]): strikingly inhibited; EC50 (HIV-1 [3]; Human immunodeficiency virus 1, CEM-SS, 144 h, read-out: EC50, inhibition of the cytopathic effects of HIV-1): ~0.1 µM; EC50 (HIV-1 [3]; Human immunodeficiency virus 1, CEM-SS, read-out: EC50 μM (± SD) BCECF): 0.16 µM; EC50 (HIV-1 [3]; Human immunodeficiency virus 1, CEM-SS, read-out: EC50 μM (± SD) XXT): 0.13 µM; inhibition of the cytopathic effects of HIV-1 upon CEM-SS cells (HIV-1 [3]): complete inhibition; production of p24 (HIV-1 [4]; [14]): strikingly inhibited; EC50 (HIV-1 [7]): 0.08 µM; EC50 (HIV-1 [8]): 0.07 µM; production of RT (HIV-1 [5]; [14]): strikingly inhibited; IC50 (CEM-SS cells [6]; Homo sapiens, quadruplicate tests, cytotoxicity to CEM-SS, read-out: IC50 μM (± SD) XXT): 14.3 µM; IC50 at 6 days [9]: ~13000 nM; EC50 (HIV-1 [10]): 0.07 µM
3 | CCCc1cc(=O)oc2c3c(c4c(c12)OC(C)(C)C=C4)O[C@H](C)[C@@H](C)[C@@H]3OC [12-methoxycalanolide A] | – | – | – | – | – | – | – | – | not detectable | –
4 | CCCc1cc(=O)oc2c3c(c4c(c12)OC(C)(C)C=C4)O[C@H](C)[C@@H](C)[C@H]3OC [12-methoxycalanolide B] | – | – | – | – | – | – | – | – | weak but detectable | –
5 | CCCc1cc(=O)oc2c3c(c4c(c12)OC(C)(C)C=C4)O[C@H](C)[C@@H](C)[C@@H]3OC(C)=O [12-acetoxycalanolide A] | – | – | – | – | – | – | – | – | active | EC50 (HIV-1 [3]; [15]): 2.7 µM; IC50 (CEM-SS cells [6]; [16]): 13 µM
6 | calanolide B | – | – | – | – | – | – | – | – | complete inhibition | inhibition of the cytopathic effects of HIV-1 upon CEM-SS cells (HIV-1 [3]): complete protection; EC50 (HIV-1 [3]; [15]): 0.4 µM; IC50 (CEM-SS cells [6]; [16]): 15 µM
7 | CCCc1cc(=O)oc2c3c(c4c(c12)OC(C)(C)C=C4)O[C@@H](C)[C@H](C)[C@@H]3O [Costatolide, costatolide] | 8 | 0.14 | about ⅔ | 0.2 | 0.23 | 0.11 | 0.12 | 10 | – | –
8 | CCCc1cc(=O)oc2c3c(c4c(c12)OC(C)(C)C=C4)OC(C)C(C)C3O (stereo not shown) [Compound 6] | – | – | – | – | – | – | – | – | weak but detectable | –
9 | CCCc1cc(=O)oc2c3c(c4c(c12)OC(C)(C)CC4)O[C@@H](C)[C@H](C)[C@@H]3O [DH-costatolide, 7,8-dihydrocostatolide] | 10.3 | 0.19 | about ⅓ | 0.31 | 0.3 | 0.24 | 0.25 | 18.7 | – | –
10 | Nc1ccn([C@H]2CC[C@@H](CO)O2)c(=O)n1 [ddC, 2′,3′-dideoxycytidine] | – | – | – | – | – | – | – | – | – | virustatic range, dose (HIV): 0.005-0.25 mg/kg body weight

Reference: patent publication US6774141B1, “Calanolide and related antiviral compounds, compositions, and uses thereof” (The United States of America as represented by the …, priority 1992, dated 2004)
